Test system: PDC KRAS tumor spheroids with HUVEC/MSC, viability
Experiment: Anticancer human tumor 349418-098-R-PDC patient-derived lung adenocarcinoma cell line growth inhibition [KRAS2]
Details: for IC50: curve of first compound; for viability, T/C: stronger effect = lower value
Source text: Multicellular complex tumor spheroid response to RAS pathway inhibitors in combination with a targeted agents in patient-derived cell lines with oncogenic KRAS variants from multiple cancer types
A high-throughput screen of multi-cell type tumor spheroids was designed to identify active combinations of targeted small molecules and KRAS pathway inhibitors. Complex spheroids include a stromal component modeled by human endothelial cells (HUVEC) and fibroblasts modeled by human mesenchymal stem cells (MSCs). The concentration ranges selected for each drug and investigational agent were based upon clinically achievable concentrations if the clinical Cmax of the agent was known.
Compounds. The drugs and investigational agents: BI-3406 (NSC825286), BAY-293 (NSC824723), batoprotafib (TNO155; NSC825523), sotorasib (AMG 510; NSC818433), MRTX1257 (NSC819558), elimusertib (BAY 1895344; NSC800525), molibresib (GSK525762; NSC774829), temuterkib (LY3214996; NSC803410), venetoclax (NSC766270), alisertib (NSC759677), olaparib (NSC753686), talazoparib (NSC767125), erdafitinib (NSC781556), ipatasertib (NSC767898), cabozantinib (NSC761068), nintedanib (NSC756659), abemaciclib (NSC768073), docetaxel (NSC628503), trametinib (NSC758246), and sapanisertib (NSC764658) were obtained from the National Cancer Institute (NCI) Developmental Therapeutics Program Chemical Repository. The FDA-approved anticancer drug set is available from the Developmental Therapeutics Program. […] The stock solutions were prepared in dimethyl sulfoxide (DMSO, Sigma-Aldrich, St. Louis, MO, cat. D2650) at 800-fold the tested concentration and stored at -70 degrees C prior to their use. All drugs and investigational agents were tested over a range starting from a high concentration at or near the clinical Cmax and decreasing in half-log increments. If the clinical Cmax for an agent had not been determined, the highest concentration tested was 10 microM.
Cell Culture. All cells were maintained in an incubator at 37 degrees C and 5% CO2 with 95% humidity. The PDC lines were cultured according to standard operating procedures established by the NCI PDMR (https://pdmr.cancer.gov/sops/default.htm). Briefly, all PDCs were thawed and cultured in Matrigel-coated flasks prepared with a working solution of 1X Ham's F-12 nutrient mix, without supplementation (Invitrogen, Waltham, MA, cat. 11765054), 100 U/mL penicillin-streptomycin (Invitrogen, cat. 15140122), and 2.5% Matrigel (Corning Inc., Corning, NY, cat. 354248) for the first three passages. All PDCs were cultured in complete DMEM/F-12 media containing advanced DMEM/F-12 (Invitrogen, cat. 12634028), 4.9% defined fetal bovine serum, heat inactivated (HyClone Laboratories Inc., Logan, UT, cat. SH30070.03HI), 389 ng/mL hydrocortisone (Sigma-Aldrich, cat. H4001), 9.7 ng/mL human EGF recombinant protein (Invitrogen, cat. PHG0313), 23.4 microg/mL adenine (Sigma-Aldrich, cat. A2786), 97.3 U/mL penicillin-streptomycin (Invitrogen, cat. 15140122), 1.9 mM L-glutamine (Invitrogen, cat. 25030081), and 9.7 microM Y-27632 dihydrochloride (Tocris Bioscience, Bristol, United Kingdom, cat. 1254). The PDCs were cultured in complete DMEM/F12 media without 9.7 microM Y-27632 dihydrochloride for at least two passages prior to the screen. The established cell line HOP-62 was cultured in RPMI 1640 medium, HEPES (Invitrogen, cat. 22400105) with 10% defined fetal bovine serum (HyClone Laboratories Inc., cat. SH30070.03) and 2 mM L-glutamine (Invitrogen, cat. 25030081). The pooled donor HUVEC were cultured in endothelial cell growth medium 2 (PromoCell, Heidelberg, Germany, cat. C-22011) and the hMSC were cultured in mesenchymal stem cell growth medium 2 (PromoCell, cat. C-28009). For all experiments, HUVEC and hMSC were used at passages </=5, while the malignant cell lines were used at passages </=15. […]

[1] = second compound 0.1 µM, first compound 0.0316 µM
[2] = second compound 0.1 µM, first compound 0.1 µM
[3] = second compound 0.1 µM, first compound 0.316 µM
[4] = second compound 0.1 µM, first compound 1 µM
[5] = second compound 0.1 µM, first compound 3.16 µM
[6] = second compound 0.1 µM, first compound 10 µM
[7] = second compound 0.316 µM, first compound 0.0316 µM
[8] = second compound 0.316 µM, first compound 0.1 µM
[9] = second compound 0.316 µM, first compound 0.316 µM
[10] = second compound 0.316 µM, first compound 1 µM
[11] = second compound 0.316 µM, first compound 3.16 µM
[12] = second compound 0.316 µM, first compound 10 µM
[13] = second compound 1 µM, first compound 0.0316 µM
[14] = second compound 1 µM, first compound 0.1 µM
[15] = second compound 1 µM, first compound 0.316 µM
[16] = second compound 1 µM, first compound 1 µM
[17] = second compound 1 µM, first compound 3.16 µM
[18] = second compound 1 µM, first compound 10 µM
[19] = second compound 3.16 µM, first compound 0.0316 µM
[20] = second compound 3.16 µM, first compound 0.1 µM
[21] = second compound 3.16 µM, first compound 0.316 µM
[22] = second compound 3.16 µM, first compound 1 µM
[23] = second compound 3.16 µM, first compound 3.16 µM
[24] = second compound 3.16 µM, first compound 10 µM
[25] = second compound 10 µM, first compound 0.0316 µM
[26] = second compound 10 µM, first compound 0.1 µM
[27] = second compound 10 µM, first compound 0.316 µM
[28] = second compound 10 µM, first compound 1 µM
[29] = second compound 10 µM, first compound 3.16 µM
[30] = second compound 10 µM, first compound 10 µM
[31] = second compound 0.1 µM, first compound 0.00316 µM
[32] = second compound 0.1 µM, first compound 0.01 µM
[33] = second compound 0.316 µM, first compound 0.00316 µM
[34] = second compound 0.316 µM, first compound 0.01 µM
[35] = second compound 1 µM, first compound 0.00316 µM
[36] = second compound 1 µM, first compound 0.01 µM
[37] = second compound 3.16 µM, first compound 0.00316 µM
[38] = second compound 3.16 µM, first compound 0.01 µM
[39] = second compound 10 µM, first compound 0.00316 µM
[40] = second compound 10 µM, first compound 0.01 µM
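Further: spheroids exposed to compounds for seven days before readout.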

| SMILES | IC50 (second compound 0.1 µM) | IC50 (second compound 0.316 µM) | IC50 (second compound 1 µM) | IC50 (second compound 3.16 µM) | IC50 (second compound 10 µM) | viability, T/C [1] | viability, T/C [2] | viability, T/C [3] | viability, T/C [4] | viability, T/C [7] | viability, T/C [8] | viability, T/C [9] | viability, T/C [10] | viability, T/C [13] | viability, T/C [14] | viability, T/C [15] | viability, T/C [19] | viability, T/C [20] | viability, T/C [25] | viability, T/C [26] | also measured |
| --- | --- | --- | --- | --- | --- | --- | --- | --- | --- | --- | --- | --- | --- | --- | --- | --- | --- | --- | --- | --- | --- |
| CC(C)NCC(C(=O)N1CCN(c2ncnc3c2C(C)CC3O)CC1)c1ccc(Cl)cc1 (stereo not given) + C=CC(=O)N1CCN(c2nc(=O)n(-c3c(C)ccnc3C(C)C)c3nc(-c4c(O)cccc4F)c(F)cc23)C(C)C1 | 287 nM | 275 nM | 184 nM | 107 nM | < 31.6 nM | 101% | 79.6% | 44.7% | 26.6% | 87.2% | 80.5% | 40.6% | 27% | 89.1% | 73.1% | 28.9% | 61.1% | 52.9% | 35.1% | 18.2% | viability, T/C [5]: 14.2%; viability, T/C [6]: 7.87%; viability, T/C [11]: 14.1%; viability, T/C [12]: 6.33%; viability, T/C [16]: 15.6%; viability, T/C [17]: 12.7%; viability, T/C [18]: 5.98%; viability, T/C [21]: 23.3%; viability, T/C [22]: 15.2%; viability, T/C [23]: 9.31%; viability, T/C [24]: 5.92%; viability, T/C [27]: 15.9%; viability, T/C [28]: 9.76%; viability, T/C [29]: 7.72%; viability, T/C [30]: 5.23% |
| CC1(C)CCC(CN2CCN(c3ccc(C(=O)NS(=O)(=O)c4ccc(NCC5CCOCC5)c([N+](=O)[O-])c4)c(Oc4cnc5[nH]ccc5c4)c3)CC2)=C(c2ccc(Cl)cc2)C1 + C=CC(=O)N1CCN(c2nc(=O)n(-c3c(C)ccnc3C(C)C)c3nc(-c4c(O)cccc4F)c(F)cc23)C(C)C1 | 1740 nM | 1760 nM | 1160 nM | 538 nM | < 31.6 nM | 99.6% | 91.4% | 91.7% | 85.1% | 92.5% | 92.2% | 82.6% | 78.7% | 78.4% | 80.5% | 75.4% | 59.6% | 58.2% | 32.7% | 33.7% | viability, T/C [5]: 12.4%; viability, T/C [6]: 3.05%; viability, T/C [11]: 20.4%; viability, T/C [12]: 3.58%; viability, T/C [16]: 55.6%; viability, T/C [17]: 12.9%; viability, T/C [18]: 2.8%; viability, T/C [21]: 52.6%; viability, T/C [22]: 44.2%; viability, T/C [23]: 13.1%; viability, T/C [24]: 3.37%; viability, T/C [27]: 31.9%; viability, T/C [28]: 32.5%; viability, T/C [29]: 6.8%; viability, T/C [30]: 5.41% |
| CCN1CCN(Cc2ccc(Nc3ncc(F)c(-c4cc(F)c5nc(C)n(C(C)C)c5c4)n3)nc2)CC1 + C=CC(=O)N1CCN(c2nc(=O)n(-c3c(C)ccnc3C(C)C)c3nc(-c4c(O)cccc4F)c(F)cc23)C(C)C1 | 6.77 nM | 7.65 nM | 7.4 nM | 4.46 nM | < 3.16 nM | 21.8% | 18% | 15.4% | 4.22% | 20.9% | 19.5% | 14.6% | 4.52% | 21.7% | 15% | 15.7% | 18.5% | 18.4% | 12.8% | 8.96% | viability, T/C [31]: 71.8%; viability, T/C [32]: 37.4%; viability, T/C [33]: 76.3%; viability, T/C [34]: 41.9%; viability, T/C [35]: 75.9%; viability, T/C [36]: 40.6%; viability, T/C [16]: 2.9%; viability, T/C [37]: 55.4%; viability, T/C [38]: 39.6%; viability, T/C [21]: 16.6%; viability, T/C [22]: 2.48%; viability, T/C [39]: 25.3%; viability, T/C [40]: 14.2%; viability, T/C [27]: 8.17%; viability, T/C [28]: 0.93% |
| Cn1ncnc1[C@H]1c2n[nH]c(=O)c3cc(F)cc(c23)N[C@@H]1c1ccc(F)cc1 + C=CC(=O)N1CCN(c2nc(=O)n(-c3c(C)ccnc3C(C)C)c3nc(-c4c(O)cccc4F)c(F)cc23)C(C)C1 | > 100 nM | > 100 nM | > 100 nM | > 100 nM | < 0.316 nM | 88.1% | 87% | – | – | 83% | 75.7% | – | – | 64.6% | 64.6% | – | 61.1% | 56.3% | 34.3% | 30.5% | viability, T/C (second compound 0.1 µM, first compound 0.000316 µM): 101%; viability, T/C (second compound 0.1 µM, first compound 0.001 µM): 95.4%; viability, T/C [31]: 94.5%; viability, T/C [32]: 92.3%; viability, T/C (second compound 0.316 µM, first compound 0.000316 µM): 95.2%; viability, T/C (second compound 0.316 µM, first compound 0.001 µM): 88.4%; viability, T/C [33]: 86.8%; viability, T/C [34]: 87.6%; viability, T/C (second compound 1 µM, first compound 0.000316 µM): 81.1%; viability, T/C (second compound 1 µM, first compound 0.001 µM): 79.3%; viability, T/C [35]: 80.5%; viability, T/C [36]: 73.3%; viability, T/C (second compound 3.16 µM, first compound 0.000316 µM): 65.8%; viability, T/C (second compound 3.16 µM, first compound 0.001 µM): 66.6%; viability, T/C [37]: 58.1%; viability, T/C [38]: 60.9%; viability, T/C (second compound 10 µM, first compound 0.000316 µM): 39%; viability, T/C (second compound 10 µM, first compound 0.001 µM): 43.6%; viability, T/C [39]: 43.9%; viability, T/C [40]: 29.1% |

From PubChem BioAssay AID1963866 (Molecular Pharmacology Branch, DTP, NCI, 2024)
